Data set [1] deals with T1, Adenosine deaminase (Bos taurus, UniProt P56658).
T1 sequence (P56658 whole entry): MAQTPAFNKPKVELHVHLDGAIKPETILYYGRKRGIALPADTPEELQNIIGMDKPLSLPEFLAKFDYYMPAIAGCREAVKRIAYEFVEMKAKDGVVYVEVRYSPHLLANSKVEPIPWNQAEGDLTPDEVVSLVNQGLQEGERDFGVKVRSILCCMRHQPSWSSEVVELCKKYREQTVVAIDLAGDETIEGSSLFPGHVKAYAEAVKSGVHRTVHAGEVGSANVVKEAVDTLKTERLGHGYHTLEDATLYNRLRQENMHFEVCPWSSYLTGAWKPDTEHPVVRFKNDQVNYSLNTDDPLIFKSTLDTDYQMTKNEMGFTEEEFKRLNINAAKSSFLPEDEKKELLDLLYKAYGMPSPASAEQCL
The data set can be described thus: Inhibition calf intestine adenosine deaminase.

Data set [2] has as its system Human immunodeficiency virus 1. In words: In vitro evaluation of anti-HIV-1 activity in C8166 cells infected with HIV-1 IIIB. In kind it is functional. The note with it: Human immunodeficiency virus 1, C8166; read-out: ED50 (the source's name).
A short description of data set [3]: In vitro evaluation of cytotoxicity in C8166 cells infected with HIV-1 IIIB. In kind it is cell-based. To be noted: human, read-out: TC50 (the source's name).

Our source for the Ki, EC50 and CC50 values is ChEMBL document CHEMBL1128456, “Synthesis and biological evaluation of N6-cycloalkyl derivatives of 1-deazaadenine nucleosides: a new class of anti-human immunodeficiency virus agents” (J Med Chem, 1995).

pEC50, pKi: −log10 of the molar value. Where only a bound is given, the exact number is not on record here.

`OC[C@H]1O[C@@H](n2cnc3c(NC4CCCC4)ccnc32)[C@H](O)[C@@H]1O`: in data set [1], the pKi is less than 4.00. Besides, the pEC50 in data set [2] is 4.80. Further, in data set [3], the CC50 was 400 µM.
As to `OC[C@H]1O[C@@H](n2cnc3c(NC4CCCCCC4)ccnc32)C[C@@H]1O`, the pKi in data set [1] is 4.38. For the same compound, the pEC50 in data set [2] is 4.52. In addition, the CC50 in data set [3] turned out to be 80 µM.
The like results for `Nc1ccnc2c1ncn2C1CCC(CO)O1` (stereo unspecified) were, in that order, 5.60, less than 4.00 and more than 100 µM.
Regarding `OC[C@H]1OC(n2cnc3c(NC4CCCCCCC4)ccnc32)[C@H](O)[C@@H]1O` (stereo partly specified), in data set [1], the pKi is 4.10. The pEC50 in data set [2] was 5.40. The CC50 in data set [3] was 50 µM.
For `Nc1cc(Cl)nc2c1ncn2[C@H]1C[C@H](O)[C@@H](CO)O1`, in that order: 4.64, less than 4.00 and more than 100 µM.
Consider `OC[C@H]1O[C@@H](n2cnc3c(NC4CCCCC4)ccnc32)C[C@@H]1O`, for which the pKi in data set [1] is less than 4.00. The pEC50 in data set [2] was 5.10. The CC50 in data set [3] was found to be 100 µM.
Regarding `CNc1cc(Cl)nc2c1ncn2C1O[C@H](CO)[C@@H](O)[C@H]1O` (stereo partly specified), the negative logarithm of the Ki (pKi) in data set [1] is 4.16. In addition, in data set [2], the pEC50 was less than 4.00. Also, in data set [3], the CC50 was more than 100 µM.
For `OC[C@H]1O[C@@H](n2cnc3c(NC4CCCCCC4)cc(Cl)nc32)C[C@@H]1O`, in that order: less than 4.00, 6.70 and 5 µM.
For `OC[C@H]1O[C@@H](n2cnc3c(NC4CC4)ccnc32)C[C@@H]1O`, in that order: 4.30, less than 4.00 and more than 100 µM.
In turn, `CNc1ccnc2c1ncn2C1CCC(CO)O1` (stereo unspecified) gave a pKi in data set [1] of 5.66. Also, in data set [2], the pEC50 was 4.30. For the same compound, the CC50 in data set [3] stood at 100 µM.
On to `OCC1CCC(n2cnc3c(NC4CCCCCCC4)cc(Cl)nc32)O1` (stereo unspecified), for which the negative-log Ki (pKi) in data set [1] was less than 4.00. Also, the pEC50 in data set [2] is 6.40. Moreover, the CC50 in data set [3] is 10 µM.
For `OC[C@H]1O[C@@H](n2cnc3c(NC4CCCCCCC4)cc(Cl)nc32)C[C@@H]1O`, in that order: less than 4.00, 5.70 and 40 µM.
In turn, `OCC1CCC(n2cnc3c(NC4CCCCCC4)ccnc32)O1` (stereo unspecified) gave a pKi in data set [1] of 4.28. For the same compound, in data set [2], the pEC50 was 5.10. Besides, in data set [3], the CC50 came out at 40 µM.
`OC[C@H]1O[C@@H](n2cnc3c(NC4CC4)ccnc32)[C@H](O)[C@@H]1O` had a pKi in data set [1] of 4.42. The pEC50 in data set [2] was less than 4.00. Moreover, the CC50 in data set [3] was more than 100 µM.
Compound `OC[C@H]1O[C@@H](n2cnc3c(NC4CCC4)cc(Cl)nc32)C[C@@H]1O` gave a negative logarithm of the Ki (pKi) in data set [1] of less than 4.00. Further, in data set [2], the pEC50 is 5.40. Besides, in data set [3], the CC50 is 400 µM.
Regarding `Nc1cc(Cl)nc2c1ncn2[C@@H]1O[C@H](CO)[C@@H](O)[C@H]1O`, in data set [1], the pKi was 4.52. In addition, in data set [2], the pEC50 is less than 4.00. The CC50 in data set [3] was more than 100 µM.
For `OCC1CCC(n2cnc3c(NC4CCC4)cc(Cl)nc32)O1` (stereo unspecified), in that order: less than 4.00, 5.40 and 250 µM.
`Nc1ccnc2c1ncn2[C@@H]1O[C@H](CO)[C@@H](O)[C@H]1O`: in data set [1], the pKi is 6.42. In addition, the pEC50 in data set [2] is less than 4.00. Further, in data set [3], the CC50 came out at 2 µM.
In data set [1], `OCC1CCC(n2cnc3c(NC4CCC4)ccnc32)O1` (stereo unspecified) showed a pKi of 4.04. Moreover, the pEC50 in data set [2] was 4.30. Further, the CC50 in data set [3] was 400 µM.
For `CNc1ccnc2c1ncn2C1O[C@H](CO)[C@@H](O)[C@H]1O` (stereo partly specified), in that order: 4.92, less than 4.00 and more than 100 µM.
`OC[C@H]1O[C@@H](n2cnc3c(NC4CCCC4)cc(Cl)nc32)C[C@@H]1O` showed a negative logarithm of the Ki (pKi) in data set [1] of less than 4.00. Also, in data set [2], the pEC50 is 6.10. The CC50 in data set [3] came out at 7 µM.
Turning to `Nc1ncnc2c1ncn2[C@H]1CC[C@@H](CO)O1`, in data set [2], the pEC50 is 5.70. In addition, the CC50 in data set [3] is more than 100 µM.
For `OC[C@H]1O[C@@H](n2cnc3c(NC4CCC4)ccnc32)C[C@@H]1O`, the pKi in data set [1] is 4.01. Moreover, in data set [2], the pEC50 is 4.70. Besides, the CC50 in data set [3] came to 400 µM.
In the case of `OCC1CCC(n2cnc3c(NC4CC4)cc(Cl)nc32)O1` (stereo unspecified), in data set [1], the negative logarithm of the Ki (pKi) is less than 4.00. In addition, the pEC50 in data set [2] was less than 4.00. In addition, the CC50 in data set [3] is more than 100 µM.
For the compound `OCC1CCC(n2cnc3c(NC4CCCCC4)ccnc32)O1` (stereo unspecified), in data set [1], the pKi is 4.16. Besides, the pEC50 in data set [2] is 4.40. Also, the CC50 in data set [3] is 50 µM.
Turning to `OCC1CCC(n2cnc3c(NC4CCCCC4)cc(Cl)nc32)O1` (stereo unspecified), the pKi in data set [1] is less than 4.00. For the same compound, in data set [2], the pEC50 is 5.40. The CC50 in data set [3] was determined as 20 µM.
The like results for `OC[C@H]1O[C@@H](n2cnc3c(NC4CCCC4)cc(Cl)nc32)[C@H](O)[C@@H]1O` were, in that order, less than 4.00, 5.00 and 100 µM.
For `OC[C@H]1O[C@@H](n2cnc3c(NC4CCCCC4)cc(Cl)nc32)C[C@@H]1O`, in data set [1], the negative logarithm of the Ki (pKi) is less than 4.00. In addition, in data set [2], the pEC50 was 5.40. In addition, the CC50 in data set [3] is 100 µM.
The like results for `OC[C@H]1O[C@@H](n2cnc3c(NC4CCCCC4)cc(Cl)nc32)[C@H](O)[C@@H]1O` were, in that order, less than 4.00, 4.70 and 50 µM.
Regarding `CNc1cc(Cl)nc2c1ncn2[C@H]1C[C@H](O)[C@@H](CO)O1`, the pKi in data set [1] was 5.38. The pEC50 in data set [2] is less than 4.00. For the same compound, the CC50 in data set [3] was more than 100 µM.
For `OC[C@H]1OC(n2cnc3c(NC4CCCCCC4)ccnc32)[C@H](O)[C@@H]1O` (stereo partly specified), in that order: less than 4.00, 4.70 and 100 µM.
For `CNc1ccnc2c1ncn2[C@H]1C[C@H](O)[C@@H](CO)O1`, in that order: 6.60, less than 4.00 and more than 100 µM.
The like results for `CNc1cc(Cl)nc2c1ncn2C1CCC(CO)O1` (stereo unspecified) were, in that order, 4.96, less than 4.00 and more than 100 µM.
`OC[C@H]1O[C@@H](n2cnc3c(NC4CCCCC4)ccnc32)[C@H](O)[C@@H]1O` gave a pKi in data set [1] of less than 4.00. Further, the pEC50 in data set [2] was 4.00. For the same compound, the CC50 in data set [3] was found to be 400 µM.
The like results for `OC[C@H]1OC(n2cnc3c(NC4CCCCCCC4)cc(Cl)nc32)[C@H](O)[C@@H]1O` (stereo partly specified) were, in that order, 4.15, 5.70 and 40 µM.
With `Nc1ccnc2c1ncn2[C@H]1C[C@H](O)[C@@H](CO)O1`, the pKi in data set [1] was 6.72. Moreover, the pEC50 in data set [2] is less than 4.00. Further, the CC50 in data set [3] is more than 100 µM.
Compound `OC[C@H]1O[C@@H](n2cnc3c(NC4CCC4)cc(Cl)nc32)[C@H](O)[C@@H]1O` showed a pKi in data set [1] of 4.01. Further, the pEC50 in data set [2] was 4.00. For the same compound, in data set [3], the CC50 turned out to be 400 µM.
For `OCC1CCC(n2cnc3c(NC4CCCCCC4)cc(Cl)nc32)O1` (stereo unspecified), in that order: less than 4.00, 6.10 and 8 µM.
The like results for `OC[C@H]1O[C@@H](n2cnc3c(NC4CCCCCCC4)ccnc32)C[C@@H]1O` were, in that order, 4.23, 5.40 and 40 µM.
For `OC[C@H]1O[C@@H](n2cnc3c(NC4CCC4)ccnc32)[C@H](O)[C@@H]1O`, in that order: 4.00, less than 4.00 and more than 100 µM.
Take `Nc1cc(Cl)nc2c1ncn2C1CCC(CO)O1` (stereo unspecified): in data set [1], the pKi was less than 4.00. Also, the pEC50 in data set [2] is less than 4.00. Besides, the CC50 in data set [3] was more than 100 µM.
`OC[C@H]1O[C@@H](n2cnc3c(NC4CCCC4)ccnc32)C[C@@H]1O` had a negative-log Ki (pKi) in data set [1] of 4.66. Further, the pEC50 in data set [2] is 4.40. Also, the CC50 in data set [3] amounted to 400 µM.
In data set [1], `OCC1CCC(n2cnc3c(NC4CCCC4)ccnc32)O1` (stereo unspecified) showed a pKi of less than 4.00. Besides, the pEC50 in data set [2] is 4.10. Besides, the CC50 in data set [3] turned out to be 500 µM.
The like results for `OC[C@H]1O[C@@H](n2cnc3c(NC4CC4)cc(Cl)nc32)[C@H](O)[C@@H]1O` were, in that order, less than 4.00, 4.52 and 500 µM.
Turning to `OCC1CCC(n2cnc3c(NC4CC4)ccnc32)O1` (stereo unspecified), the pKi in data set [1] was 4.11. The pEC50 in data set [2] is 4.00. Besides, the CC50 in data set [3] stood at 750 µM.
The like results for `OC[C@H]1OC(n2cnc3c(NC4CCCCCC4)cc(Cl)nc32)[C@H](O)[C@@H]1O` (stereo partly specified) were, in that order, less than 4.00, 5.10 and 50 µM.
In data set [1], `OCC1CCC(n2cnc3c(NC4CCCC4)cc(Cl)nc32)O1` (stereo unspecified) showed a pKi of less than 4.00. The pEC50 in data set [2] was 4.70. Also, the CC50 in data set [3] worked out at 50 µM.
For `OC[C@H]1O[C@@H](n2cnc3c(NC4CC4)cc(Cl)nc32)C[C@@H]1O`, in that order: 4.12, 5.10 and 500 µM.
Turning to `OCC1CCC(n2cnc3c(NC4CCCCCCC4)ccnc32)O1` (stereo unspecified), the negative logarithm of the Ki (pKi) in data set [1] was less than 4.00. Further, in data set [2], the pEC50 was 6.10. Moreover, the CC50 in data set [3] is 10 µM.
